Measured values published in patent US12521395B2, “Gem-disubstituted heterocyclic compounds and their use as IDH inhibitors” (NERVIANO MEDICAL SCIENCES S.R.L., priority 2019, dated 2026).
Where two headings read alike, the source gives them in different places.

Experiments:
[1] = test system: cell lines HT-1080 (IDH1^R132C); experiment: Cellular assay: inhibition of 2HG production, LC-MS/MS; type: cell-based; conditions: Homo sapiens, 72 hr incubation, 2-HG in cell culture media, read-out: HT1080 2-HG IC50
Method: Cell lines HT-1080 (commercially available) are maintained in E-MEM 10% FCS and incubated at 37° C. in a humidified 5% CO2 atmosphere.
Cells are seeded into 96 well black flat bottom plates at a density of 500 cells/well in 100 μL complete medium. After 24 hr the medium is replaced with 200 μL of fresh medium and compounds (dissolved into DMSO) are administrated to the cells using D300E Digital Dispenser (Tecan).
After 72 hr of incubation 100 μL from each well are collected and used for 2HG (R(−)-2-hydroxyglutarate) quantification. Levels of 2-HG in cell culture media are determined by LC-MS/MS. Cell supernatants (100 μL/well) are treated with 1 M aqueous trichloroacetic acid containing 130 μM of the internal standard 2-HG-d3 (20 μL/well) in a 96-well plate. The plates are sealed, mildly vortexed for 60 minutes, centrifuged at 4,000 RPM for 15 minutes, placed in a refrigerated autosampler taking care not to shake them, and aliquots of the upper part of the samples are directly injected in the chromatographic system. Calibration standards are obtained by ten folds dilution of aqueous 2-HG stock solutions with blank cell culture medium and denatured exactly in the same way as described above for samples. Samples and standards are assayed for 2-HG by reversed phase chromatography on a C18 column eluted with aqueous 0.15% formic acid and briefly washed with 90% methanol at the end of the run. 2-HG is determined by negative ion electrospray ionization with the internal standard method on a triple quadrupole mass spectrometer monitoring the MRM transitions 147>129 (2-HG) and 150>132 (2-HG-d3).
2-HG inhibition was calculated by comparing treated versus control data using Assay Explore (Symyx) software, with IC50 determined using a sigmoidal fitting algorithm.

IDH1^R132C = IDH1^R132C (Homo sapiens, UniProt O75874, R132C); experiment: NADPH depletion assay (diaphorase/resazurin), IDH1 R132C; type: biochemical
Method: IDH mutated enzyme activity converting alpha-ketoglutarate to 2-hydroxyglutaric acid is measured using a NADPH depletion assay. In the assay the remaining cofactor is measured at the end of the reaction with the addition of a catalytic excess of diaphorase and resazurin, to generate a fluorescent signal in proportion to the amount of NADPH remaining. IDH1 WT enzyme as well as mutated isoforms IDH1^R132H, IDH1^R132C, and IDH2^R172K enzymes are commercially available proteins (see e.g. Sino Biological, Abcam, Active Motif or Creative BioMart).
IDH1^R132H homodimer enzyme are diluted to 8 nM, in 10 μL of Assay Buffer (150 mM NaCl, 50 mM Tris-HCl pH 7.6, 10 mM MgCl2, 0.001% Triton X-100, 4 mM β-mercaptoethanol); 0.2 μL of test compound, previously serially diluted 1 to 3, >10 experimental points from 1 mM in DMSO, is added and the mixture is incubated for 15 minutes at room temperature. The reaction is started with the addition of 10 μL of Substrate Mix (12 μM NADPH, 3.4 mM alpha-ketoglutarate in Assay Buffer) and the mixture is incubated for 60 minutes at room temperature. The reaction is terminated with the addition of 5 μl of Detection Buffer (100 μg/mL diaphorase, 30 μM resazurin, in IX Assay Buffer), and is incubated for 15 minutes before reading on a ViewLux as platereader at Ex544/Em590.
Compounds are assayed for their activity against IDH1^R132C following the same assay as above with the following modifications: IDH1^R132C and alpha-ketoglutarate final concentrations in the Assay Buffer is 2 nM and 0.14 mM, respectively.

[2] = IDH1^R132C 2 nM, alpha-ketoglutarate 0.14 mM, read-out: IDH1^R132C IC50

Chain of IDH1^R132C (O75874 whole entry R132C, canonical isoform): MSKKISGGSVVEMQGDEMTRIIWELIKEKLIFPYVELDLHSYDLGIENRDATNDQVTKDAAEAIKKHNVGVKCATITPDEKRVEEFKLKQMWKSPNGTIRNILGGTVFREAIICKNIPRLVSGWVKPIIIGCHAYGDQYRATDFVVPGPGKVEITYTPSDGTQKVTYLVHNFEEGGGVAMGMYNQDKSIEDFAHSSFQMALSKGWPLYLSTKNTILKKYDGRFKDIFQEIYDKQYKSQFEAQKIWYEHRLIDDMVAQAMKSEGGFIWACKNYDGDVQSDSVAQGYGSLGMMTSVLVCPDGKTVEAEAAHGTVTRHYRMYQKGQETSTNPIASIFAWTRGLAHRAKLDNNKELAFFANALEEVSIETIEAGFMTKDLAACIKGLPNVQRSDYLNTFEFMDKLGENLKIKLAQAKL

Row | IC50 [1] | IC50 (IDH1^R132C; [2]) | SMILES | IC50 (IDH1^R132C)
1 | 2.4 nM | 7 nM | [2H]C([2H])=C([2H])C(=O)N1CCN(C2(c3ccc([C@H](C)Nc4ncc5ccc(=O)n(C(C)C)c5n4)cc3)CCOCC2)CC1 [cpd 51, 8-(propan-2-yl)-2-({(1S)-1-[4-(4-{4-[(^2H3)prop-2-enoyl]piperazin-1-yl}tetrahydro-2H-pyran-4-yl)phenyl]ethyl}amino) pyrido[2,3-d]pyrimidin-7(8H)-one] | –
2 | 34 nM | 117 nM | C=CC(=O)N1CCN(C2(c3ccc([C@H](C)Nc4ncc5ccc(=O)n(C(C)C)c5n4)cn3)CCOCC2)CC1 [cpd 12, 2-{[(1S)-1-{6-[4-(4-acryloylpiperazin-1-yl)tetrahydro-2H-pyran-4-yl]pyridin-3-yl}ethyl]amino}-8-(propan-2-yl)pyrido[2,3-d]pyrimidin-7(8H)-one] | –
3 | 2.1 nM | 3 nM | C=CC(=O)N1CCN(C2(c3ccc([C@H](C)Nc4ncc5c(n4)N(CC)C(=O)OC5)cc3)CCOCC2)CC1 [cpd 24, 7-{[(1S)-1-{4-[4-(4-acryloylpiperazin-1-yl)tetrahydro-2H-pyran-4-yl]phenyl}ethyl]amino}-1-ethyl-1,4-dihydro-2H-pyrimido[4,5-d][1,3]oxazin-2-one] | –
4 | 122 nM | 1460 nM | CC(C)n1c(=O)ccc2cnc(N[C@@H](C)c3ccc(C4(N5CCN(C(=O)CCCl)CC5)CCOCC4)cc3)nc21 [cpd 23, 2-{[(1S)-1-(4-{4-[4-(3-chloropropanoyl)piperazin-1-yl]tetrahydro-2H-pyran-4-yl}phenyl)ethyl]amino}-8-(propan-2-yl) pyrido[2,3-d]pyrimidin-7(8H)-one] | –
5 | 4.9 nM | 25.7 nM | C=CC(=O)N1CCN(C2(c3ccc([C@H](C)Nc4ncc5ccc(=O)n(C(C)C)c5n4)cc3)CCOC2)CC1 (stereo partly drawn) [cpd 17, 2-{[(1S)-1-{4-[3-(4-acryloylpiperazin-1-yl)tetrahydrofuran-3-yl]phenyl}ethyl]amino}-8-(propan-2-yl)pyrido[2,3-d]pyrimidin-7(8H)-one] | –
6 | 3 nM | 15 nM | C=CC(=O)N1CCN([C@@](C)(CN2CCOCC2)c2ccc([C@H](C)Nc3ncc4ccc(=O)n(C(C)C)c4n3)cc2)CC1 [cpd 43, 2-{[(1S)-1-{4-[(2R)-2-(4-acryloylpiperazin-1-yl)-1-(morpholin-4-yl)propan-2-yl]phenyl}ethyl]amino}-8-(propan-2-yl) pyrido[2,3-d]pyrimidin-7(8H)-one] | –
7 | 121 nM | 8 nM | CC(C)n1c(=O)ccc2cnc(N[C@@H](C)c3ccc(C4(N5CCN(C(=O)CCl)CC5)CCOCC4)cc3)nc21 [cpd 22, 2-{[(1S)-1-(4-{4-[4-(chloroacetyl)piperazin-1-yl]tetrahydro-2H-pyran-4-yl}phenyl)ethyl]amino}-8-(propan-2-yl) pyrido[2,3-d]pyrimidin-7(8H)-one] | –
8 | 3 nM | 17 nM | C=CC(=O)N1CCN(C2(c3ccc(C4(Nc5ncc6ccc(=O)n(C(C)C)c6n5)CC4)cc3)CCCC2)CC1 [cpd 49, 2-[(1-{4-[1-(4-acryloylpiperazin-1-yl)cyclopentyl]phenyl}cyclopropyl)amino]-8-(propan-2-yl)pyrido[2,3-d]pyrimidin-7(8H)-one] | –
9 | 4 nM | 9 nM | C=CC(=O)N1CCN(C2(c3ccc([C@H](C)Nc4cc5c(cn4)COC(=O)N5CC)cc3)CCOCC2)CC1 [cpd 44, 7-{[(1S)-1-{4-[4-(4-acryloylpiperazin-1-yl)tetrahydro-2H-pyran-4-yl]phenyl}ethyl]amino}-1-ethyl-1,4-dihydro-2H-pyrido[4,3-d][1,3]oxazin-2-one] | –
10 | 7.5 nM | 48 nM | C=CC(=O)N1CCN(C2(c3ccc(C4(Nc5ncc6ccc(=O)n(C(C)C)c6n5)CC4)cc3)CCOCC2)CC1 [cpd 30, 2-[(1-{4-[4-(4-acryloylpiperazin-1-yl)tetrahydro-2H-pyran-4-yl]phenyl}cyclopropyl)amino]-8-(propan-2-yl)pyrido[2,3-d]pyrimidin-7(8H)-one] | –
11 | 40 nM | 28 nM | CC(C)n1c(=O)ccc2cnc(N[C@@H](C)c3ccc(C4(N(C)C5CN(C(=O)C(F)Cl)C5)CCC(F)(F)CC4)cc3)nc21 (stereo partly drawn) [cpd 53, 2-{[(1S)-1-(4-{1-[{1-[chloro(fluoro)acetyl]azetidin-3-yl}(methyl)amino]-4,4-difluorocyclohexyl}phenyl)ethyl]amino}-8-(propan-2-yl)pyrido[2,3-d]pyrimidin-7(8H)-one] | –
12 | 14.8 nM | 18 nM | C=CC(=O)N1CCN(C2(c3ccc(C(C)(C)Nc4ncc5ccc(=O)n(C(C)C)c5n4)cc3)CCOCC2)CC1 [cpd 40, 2-[(2-{4-[4-(4-acryloylpiperazin-1-yl)tetrahydro-2H-pyran-4-yl]phenyl}propan-2-yl)amino]-8-(propan-2-yl)pyrido[2,3-d]pyrimidin-7(8H)-one] | –
13 | 0.3 nM | 1.3 nM | C=CC(=O)N1CCN(C2(c3ccc([C@H](C)Nc4ncc5ccc(=O)n(C(C)C)c5n4)cc3)CCCC2)CC1 [cpd 16, 2-{[(1S)-1-{4-[1-(4-acryloylpiperazin-1-yl)cyclopentyl]phenyl}ethyl]amino}-8-(propan-2-yl)pyrido[2,3-d]pyrimidin-7(8H)-one] | –
14 | 47 nM | 26 nM | C=CC(=O)N1CC(N(C)C2(c3ccc([C@H](C)Nc4ncc5ccc(=O)n(C(C)C)c5n4)cc3)CCOCC2)C1 [cpd 28, 2-{[(1S)-1-(4-{4-[(1-acryloylazetidin-3-yl)(methyl)amino]tetrahydro-2H-pyran-4-yl}phenyl)ethyl]amino}-8-(propan-2-yl) pyrido[2,3-d]pyrimidin-7(8H)-one] | –
15 | 4.8 nM | 4.4 nM | C=CC(=O)N1CCN(C2(c3ccc([C@H](C)Nc4ncc5ccc(=O)n(CC)c5n4)cc3)CCOCC2)CC1 [cpd 14, 2-{[(1S)-1-{4-[4-(4-acryloylpiperazin-1-yl)tetrahydro-2H-pyran-4-yl]phenyl}ethyl]amino}-8-ethylpyrido[2,3-d]pyrimidin-7(8H)-one] | –
16 | 4.9 nM | 12 nM | C=CC(=O)N1CCN(C(C)(C)c2ccc([C@H](C)Nc3ncc4ccc(=O)n(C(C)C)c4n3)cc2)CC1 [cpd 2, 2-{[(1S)-1-{4-[2-(4-acryloylpiperazin-1-yl)propan-2-yl]phenyl}ethyl]amino}-8-(propan-2-yl)pyrido[2,3-d]pyrimidin-7(8H)-one] | –
17 | 562 nM | 40.2 nM | C=C(CN1CCN(C2(c3ccc([C@H](C)Nc4ncc5ccc(=O)n(C(C)C)c5n4)cc3)CCOCC2)CC1)C(=O)O [cpd 7, 2-{[4-(4-{4-[(1S)-1-{[7-oxo-8-(propan-2-yl)-7,8-dihydropyrido[2,3-d]pyrimidin-2-yl]amino}ethyl]phenyl}tetrahydro-2H-pyran-4-yl)piperazin-1-yl]methyl}prop-2-enoic acid] | –
18 | 3 nM | 3.1 nM | C=CC(=O)N1CCN(C2(c3ccc([C@H](C)Nc4nc(N)c5ccc(=O)n(C(C)C)c5n4)cc3)CCOCC2)CC1 [cpd 19, 2-{[(1S)-1-{4-[4-(4-acryloylpiperazin-1-yl)tetrahydro-2H-pyran-4-yl]phenyl}ethyl]amino}-4-amino-8-(propan-2-yl) pyrido[2,3-d]pyrimidin-7(8H)-one] | –
19 | – | 1470 nM | CC#CC(=O)N1CCN(C2(c3ccc([C@H](C)Nc4ncc5ccc(=O)n(C(C)C)c5n4)cc3)CCOCC2)CC1 [cpd 5, 2-{[(1S)-1-(4-{4-[4-(but-2-ynoyl)piperazin-1-yl]tetrahydro-2H-pyran-4-yl}phenyl)ethyl]amino}-8-(propan-2-yl)pyrido[2,3-d]pyrimidin-7(8H)-one] | –

Row | SMILES | IC50 [1] | IC50 (IDH1^R132C; [2]) | IC50 (IDH1^R132C)
20 | C=CC(=O)N1CCN(C2(c3ccc([C@H](C)Nc4ncc5ccc(=O)n(C(C)C)c5n4)cc3)CCCCC2)CC1 [cpd 20, 2-{[(1S)-1-{4-[1-(4-acryloylpiperazin-1-yl)cyclohexyl]phenyl}ethyl]amino}-8-(propan-2-yl)pyrido[2,3-d]pyrimidin-7(8H)-one] | 1 nM | – | 1 nM
